From PubChem BioAssay (NCI)
Values joined by “and” are separate entries in the source; they are usually repeats but may differ in a detail not shown here. Identical values can stand only once.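 Dose response: 5 concentrations. Exposure: 48 h. Format: 96-well plates. Endpoint: linear interpolation; highest concentration if not reached. Abbreviation: GI50, concentration required for 50% inhibition of growth. TGI is the concentration that stops growth completely.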

What was measured:
Test in all cases: inhibition of tumour cell growth, NCI panel, 48 h
HOP-92 NSCLC = tested on: HOP-92 NSCLC
MDA-MB-231 breast = tested on: MDA-MB-231 breast
HCT-15 colon = tested on: HCT-15 colon
MALME-3M melanoma = tested on: MALME-3M melanoma
ACHN renal = tested on: ACHN renal
SNB-19 CNS = tested on: SNB-19 CNS
CAKI-1 renal = tested on: CAKI-1 renal
OVCAR-5 ovarian = tested on: OVCAR-5 ovarian
KM12 colon = tested on: KM12 colon
EKVX NSCLC = tested on: EKVX NSCLC

Compound	TGI (HOP-92 NSCLC)	TGI (MDA-MB-231 breast) [µM]	TGI (HCT-15 colon)	TGI (MALME-3M melanoma)	TGI (ACHN renal)	TGI (SNB-19 CNS)	TGI (CAKI-1 renal)	TGI (OVCAR-5 ovarian)	TGI (KM12 colon)	TGI (EKVX NSCLC)	GI50 (HOP-92 NSCLC)	GI50 (MDA-MB-231 breast)	GI50 (HCT-15 colon)	GI50 (MALME-3M melanoma)	GI50 (ACHN renal)	GI50 (SNB-19 CNS)	GI50 (CAKI-1 renal)	GI50 (OVCAR-5 ovarian)	GI50 (KM12 colon)	GI50 (EKVX NSCLC)
O=C1Oc2ccccc2C(=O)/C1=C1/C=C(c2ccccc2)SS1	> 100 µM	> 100	> 100 µM	> 100 µM	> 100 µM	> 100 µM	> 100 µM	> 100 µM	> 100 µM	> 100 µM										
COc1cc2c(N3CCN(C(=O)Nc4ccc(OC(C)C)cc4)CC3)ncnc2cc1OCCCN1CCCCC1	33.1 µM	32.4	36.1 µM	29 µM	55.6 µM	> 100 µM	> 54.9 µM	> 90.1 µM	29.8 µM	> 100 µM	6.24 µM	14.4 µM	16.7 µM	14.3 µM	20.8 µM	22.2 µM	17.4 µM	26.8 µM	3.22 µM	28.9 µM
COC1N(C2CC(O)C(CO)O2)C(=O)NC(=O)C1(F)Br (stereo unspecified)	43.8 µM and > 100 µM	> 100	50 µM and > 100 µM	50 µM and > 100 µM	50 µM and > 100 µM	50 µM and > 100 µM	50 µM and > 100 µM	> 100 µM	50 µM and > 100 µM	50 µM and > 100 µM	13.2 µM		26.3 µM	35.1 µM	23.9 µM	26.6 µM	24.9 µM	> 50 µM	30.4 µM	19.9 µM
O=c1c2ccccc2sc2c(CO)ccc(NCCN3CCCCC3)c12	20.9 µM	19.4	14 µM	5.2 µM	9.45 µM	17.6 µM	13.3 µM	20 µM	14.8 µM	16.6 µM										
CC1(C)OC[C@@H]([C@@]2(CO[Si](c3ccccc3)(c3ccccc3)C(C)(C)C)CC=CC(=O)O2)O1	26.2 µM	> 100	58.6 µM	8.48 µM	36.6 µM	97.5 µM	> 100 µM	49.6 µM	56.3 µM	37.8 µM	6.72 µM	20.6 µM	5.86 µM	2.42 µM	11.4 µM	15.5 µM	25.9 µM	16.7 µM	4.99 µM	12.1 µM
Cc1nn(-c2ccc(Cl)cc2)c2ncnc(N/N=C/c3ccccc3O)c12	34.6 µM and 16.3 µM	> 65.3	> 100 µM	9.56 µM and 7.85 µM	12 µM and 10.5 µM	> 80.4 µM	3.03 µM and 8.82 µM	> 100 µM	> 100 µM	30.8 µM and > 100 µM	1.11 µM and 0.714 µM	0.694 µM and 0.375 µM	0.407 µM and 0.331 µM	1.19 µM and 0.508 µM	0.362 µM and 0.322 µM	1.08 µM and 0.604 µM	0.331 µM and 0.625 µM	4.16 µM and 2.34 µM	0.53 µM and 0.385 µM	0.96 µM and 0.993 µM
O=C1/C(=C/c2ccc(Cl)c(Cl)c2)CN(C(=O)CCN2CCC(=NO)CC2)C/C1=C\c1ccc(Cl)c(Cl)c1	3.82 µM	1.85	1.16 µM	2.78 µM	1.62 µM	1.8 µM	1.78 µM	2.74 µM	1.14 µM	3.05 µM	1.56 µM	0.616 µM	0.325 µM	1.32 µM	0.641 µM	0.599 µM	0.584 µM	1.13 µM	0.368 µM	1.31 µM
CC(Br)C(=O)NC(CO)C(=O)O (stereo unspecified)	> 100 µM	> 100	> 100 µM	> 100 µM	> 100 µM	> 100 µM	> 100 µM	> 100 µM	> 100 µM	> 100 µM										
Cn1nccc1Nc1nccc(-c2ccn([C@H](CO)c3ccc(Cl)c(F)c3)c(=O)c2)n1	40 µM	> 100	> 100 µM	0.307 µM	> 100 µM	> 100 µM	> 100 µM	> 100 µM	> 100 µM	> 100 µM	1.36 µM	5.96 µM	21.3 µM	0.0289 µM	25 µM	27.6 µM	34.3 µM	2.55 µM	18.8 µM	22.8 µM
Nc1ncc(Cc2ccc3c(c2)OCO3)c(N)n1	> 100 µM	> 100	> 100 µM	> 100 µM	> 100 µM	> 100 µM	> 100 µM	> 100 µM	> 100 µM	> 100 µM										
CC(C)(CO)CNC(=O)c1ccc2[nH]c(O)c(N=Nc3ccc(S(N)(=O)=O)cc3)c2c1	> 25 µM	> 25	> 25 µM	> 25 µM	> 25 µM	> 25 µM	> 25 µM	> 25 µM	> 25 µM	> 25 µM	> 25 µM	> 25 µM	> 25 µM	> 25 µM	> 25 µM	> 25 µM	> 25 µM	> 25 µM	> 25 µM	> 25 µM
CSC1=Nc2c(c(C)c(C)n2COC(CO)CO)C2=NC(=O)CN12	> 100 µM	> 100	> 100 µM	> 100 µM	> 100 µM	> 100 µM	> 100 µM	> 100 µM	> 100 µM	> 100 µM	> 100 µM	> 100 µM	> 100 µM	> 100 µM	> 100 µM	> 100 µM	> 100 µM	> 100 µM	> 100 µM	> 100 µM
COC(=O)OC1C(O[C@H]2C[C@H]3[C@@H]4CC=C5C[C@@H](O)CC[C@]5(C)[C@H]4CC[C@]3(C)[C@H]2[C@H](C)C(=O)CCC(C)C)OCC(O)C1OC1OCC(O)C(O)C1OC(=O)c1ccc(OC)cc1 (stereo partly specified)	1.87 µM	4.46	1.26 µM	0.769 µM	> 27.5 µM	2.24 µM	0.447 µM	2.63 µM	9.86 µM	2.55 µM	0.0492 µM	0.082 µM	0.137 µM	0.0184 µM	0.0721 µM	0.0155 µM	0.0191 µM	0.0982 µM	0.039 µM	0.0196 µM
CCN=c1sc2c(n1NC(=O)c1cc3ccc1CCc1ccc(cc1)CC3)C(=O)c1ccccc1C2=O	2.83 µM	2.72	1.21 µM	0.978 µM	0.965 µM	1.33 µM	2.86 µM	1.15 µM	3.83 µM	1.66 µM	0.772 µM	0.658 µM	0.569 µM	0.524 µM	0.492 µM	0.605 µM	0.496 µM	0.587 µM	1.02 µM	0.632 µM
CN(C)CCCC1(c2ccc(F)cc2)OCc2cc(-c3cccc4[nH]ccc34)ccc21 (stereo unspecified)	2.81 µM	2.9	3.42 µM	3.01 µM	3.04 µM	3.26 µM	2.77 µM	3.27 µM	3.27 µM	3.3 µM	1.25 µM	1.49 µM	1.83 µM	1.56 µM	1.68 µM	1.74 µM	1.41 µM	1.71 µM	1.74 µM	1.78 µM
COc1ccc2c(N)ncc(C#Cc3cc(C(=O)Nc4ccc(CN5CCN(C)CC5)c(C(F)(F)F)c4)cnc3C)c2c1	3.87 µM	1.16	0.956 µM	1.16 µM	1.15 µM	2.38 µM	8.62 µM	3.78 µM	2.64 µM	19 µM	0.88 µM	0.501 µM	0.386 µM	0.322 µM	0.436 µM	0.933 µM	1.36 µM	1.33 µM	0.079 µM	5.11 µM
COc1ccc2c(c1)c(-c1nc(-c3c[nH]c4ncccc34)cs1)cn2CCCN1CCOCC1	6.82 µM	4.54	7.7 µM	3.14 µM	8.22 µM	8.71 µM	4.67 µM	7.91 µM	6.88 µM	16.8 µM	2.42 µM	1.86 µM	2.32 µM	1.39 µM	2.5 µM	2.86 µM	1.88 µM	2.6 µM	2.41 µM	3.01 µM
OC1(c2ccc(Cl)c(C(F)(F)F)c2)CCN(CCCC(c2ccc(F)cc2)c2ccc(F)cc2)CC1	1.17 µM	1.52	1.75 µM	1.74 µM	1.63 µM	3.86 µM	1.9 µM	1.77 µM	1.62 µM	6.2 µM	0.448 µM	0.795 µM	0.888 µM	0.934 µM	0.87 µM	1.13 µM	0.922 µM	0.868 µM	0.864 µM	1.47 µM
CCN(CC)CCCNc1ccc(C)c2sc3ccccc3c(=O)c12	16.2 µM	0.863	0.651 µM	0.402 µM	2.31 µM	2.71 µM	3.06 µM	2.76 µM	2.74 µM	7.65 µM	1.96 µM	0.294 µM	0.248 µM	0.193 µM	0.869 µM	1.03 µM	1.29 µM	1.26 µM	1.11 µM	2.16 µM
CC1(C)N=C(N)N=C(N)N1c1ccc(CCC(=O)Nc2ccc(S(=O)(=O)F)cc2)cc1	> 100 µM	> 100	> 100 µM	> 100 µM	> 100 µM	> 100 µM	> 100 µM	> 100 µM	> 100 µM		5.31 µM	23.1 µM	3.48 µM	10.9 µM	7.34 µM	7.16 µM	2.33 µM	0.599 µM	0.64 µM	
Cc1ccc2c(-c3ccnc(Nc4ccc5c(c4)OCCO5)n3)c(-c3ccc(C(F)(F)F)cc3)nn2n1	19.2 µM	> 25	> 25 µM	> 25 µM	> 25 µM	> 25 µM	> 25 µM	> 25 µM	> 25 µM	> 25 µM	1.4 µM	1.25 µM	8.69 µM	> 25 µM	16.5 µM	> 25 µM	1.42 µM	6 µM	14.1 µM	4.72 µM
N#Cc1nc2c(S(=O)(=O)c3ccc(Cl)cc3)c(N)n(Nc3cccc(Cl)c3)c2nc1C#N	0.099 µM	0.0869	> 100 µM	0.33 µM				0.106 µM and 0.175 µM				0.0178 µM	0.0982 µM	0.0532 µM	0.0277 µM	0.137 µM	0.0311 µM	0.0219 µM and 0.0224 µM		0.0693 µM and 0.0266 µM
Cn1c([N+](=O)[O-])cnc1C=C1C(=O)c2ccccc2C1=O	6.1 µM	10.1	6.77 µM	11.6 µM	13.7 µM	44.5 µM	14.2 µM	18.7 µM	32.7 µM		1.65 µM	2.72 µM	2.13 µM	3.44 µM	3.75 µM	15.1 µM	3.56 µM	6 µM	11.1 µM	
O=C(Nc1ccc(N=C=S)cc1Cl)c1cc(Br)cc(Br)c1O	56 µM	46.2	31.3 µM	> 100 µM	83.8 µM	64.3 µM	> 100 µM	50.9 µM	55.3 µM											
CCn1c2c(c3ccccc3c1=O)C(=O)c1ccccc1-2	> 100 µM	> 100	> 100 µM	> 100 µM		> 100 µM	> 100 µM	> 100 µM	> 100 µM	> 100 µM										
Cc1cccc(NC(=O)c2sc3nc4c(cc3c2N)C(=O)CCC4)c1	> 74.9 µM	> 44.5	> 100 µM	16.9 µM	> 58.5 µM	> 100 µM	> 100 µM	> 57.7 µM	> 100 µM		1.8 µM	0.585 µM	0.156 µM	0.311 µM	1.48 µM	0.464 µM	0.368 µM		0.215 µM	
COc1ccc2sc3c(NCCCN)nc4ccccc4c3c(=O)c2c1	3.39 µM	3	3.05 µM	3.32 µM	3.07 µM		3.06 µM	3.28 µM	3.36 µM	3.39 µM	1.36 µM	1.52 µM	1.54 µM	1.78 µM	1.69 µM		1.6 µM	1.68 µM	1.82 µM	1.75 µM
